The results in this text go back to patent US20250228827A1, “METHODS OF TREATING ERYTHROPOIETIC PROTOPORPHYRIA, X-LINKED PROTOPORPHYRIA, OR CONGENITAL ERYTHROPOIETIC PORPHYRIA WITH GLYCINE TRANSPORT INHIBITORS” (Disc Medicine, Inc., priority 2021, published 2025).

The structures appear in SMILES notation.

Experiment [1] relates to K562 clone 10-9 cells. Briefly: PPIX accumulation in K562-EPP cellular model (Clone 10-9), flow cytometry. The experiment is classed as cell-based. The settings on record: for effect on PPIX accumulation by flow cytometry: 96 hours; for IC50: Homo sapiens, 96 hours at 37° C., flow cytometry, read-out: IC50 of inhibition of PPIX accumulation. How it is done:
CRISPR-Cas9 technology was utilized to generate genetic changes in the Ferrochelatase gene (FECH). Guide RNA sgRNA-1 was designed to target Exon 3 of FECH genetic locus and generate a knockout allele at the FECH genomic locus by introduction of indels that lead to frameshift of the coding sequence and premature stop codon. The K562 cells were cultured in IMDM medium supplemented with 10% fetal bovine serum (FBS), 1% penicillin/streptomycin (PS). CRISPR Cas9 RNP complex with guide RNA (gRNA) was electroporated in K562 cells. The transfection was performed using 4D Nucleofector, SF kit, FF-120 program. The transfected cells were plated at densities of 0.5 cells per well in 96-well plates in complete medium. Cells were allowed to grow until colonies were visible in the well. The K562-EPP subclones were individually expanded and screened for the FECH knockout genotype by PCR of genomic DNA and for the expression of the FECH gene by RT-PCR. K562-Clone 10 is determined to be heterozygous for the FECH knockout allele and has reduced expression level of FECH mRNA than the parental K562 cell line.
In order to introduce the IVS3-T48C mutation into the wild-type allele of the FECH gene in K562-Clone10, CRISPR Cas9 RNP complex with guide RNA sgRNA-2 and single stranded DNA donor were electroporated into the K562-clonel0 that is already heterozygous for the FECH knockout allele generated from the CRISPR-Cas9 gene editing event described in the previous paragraph. sgRNA-2 was designed to target Intron 3, close to the target site IVS3-T48. Similarly, single-cell clones were isolated from this round of gene editing by limited dilution. TA cloning and Sanger sequencing were used to confirm single-cell clones and genotypes. This procedure generated K562 Clone10-IVS-Clone9 (Clone 10-9), which carries the FECH knockout allele in trans with the IVS3-T48C mutation in the other FECH allele.
The effect of GlyT1 inhibitors on reducing PPIX accumulation was evaluated in the K562-EPP cellular model, Clone 10-9. 900 μL of K562 clone 10-9 cells at 2×10^5 cells/mL in IMDM media with 10% FBS and 1% PS were plated into a 24-well plate. After 24-hour incubation, 100 μL of compound in DMSO/media was added in different concentration. The final concentration of DMSO was 0.1%. The compound was incubated for 96 hours at 37° C. Cell viability and cell count were measured by Vi-CELL XR Complete System. Finally, the effect of the compound on PPIX level was determined by flow cytometry.

Experiment [2] relates to FECH knockdown CD34+ cells. Nature of the experiment: PPIX accumulation in FECH knockdown CD34+ cells (CD34+-EPP cells), LC-MS/MS. The experiment is classed as cell-based, human. The conditions noted are these: for effect on PPIX accumulation / IC50: FECH knockdown CD34+ cells; for IC50: Homo sapiens, treated 9 days (day 8 to day 16), LC-MS/MS, read-out: IC50 on PPIX levels. An excerpt:
To investigate the effects of GlyT1 inhibitors in human hematopoietic stem cells with an EPP phenotype, lentiviral vectors expressing shRNA of FECH were constructed (Table 2) and transduced at 25 MOI into human cord blood-CD34+ cells purchased from Stemexpress.
Specifically, the purchased CD34+ cells were defrosted and expanded for eight days in serum-free Hematopoietic Progenitor Expansion Medium XF (C-28021) supplemented with Cytokine Mix E (human TPO, SCF, FLT-3 ligand and IL-3, #C-39891). During the expansion phase, CD34 expression was monitored, cells were frozen in a serum-free DMSO-based freezing medium (CryoStor® CS2).
For FECH knock-down experiments, cells expanded from a single vial were used to avoid donor heterogeneity. Freshly defrosted cells were expanded for three days (day 0-day 3) and infected with lentivirus expressing shControl or shFECH at an MOI of 25 in the presence of polybrene. After transduction, shRNA expressing cells were selected in the presence of puromycin (1 ug/ml) for four days (day 4-day 7). FECH expression levels were determined in the shFECH transfected CD34+ cells at Day 8. FECH mRNA level was reduced by ˜80% (0.196±0.307) in the shFECH transfected CD34+ cells (FIG. 5A). FECH protein level was reduced by ˜62% in the shFECH transfected CD34+ cells (FIG. 5B and FIG. 5C).
In order to evaluate the effect of GlyT1 inhibitor on PPIX accumulation in CD34^+-EPP cells, the cells were treated with serial dilutions of the compounds or DMSO control in the erythroid differentiation medium for 9 days (day 8 to day 16). The differentiated erythroid cells were harvested at day 16 and assayed for the intracellular PPIX levels by LC-MS/MS.

The term IC50 denotes the point on the concentration scale where inhibition reaches its midpoint. As to `C[C@@H](Oc1ccc(S(C)(=O)=O)cc1C(=O)N1C[C@@H]2C[C@]2(c2cc(C(F)(F)F)on2)C1)C(F)(F)F` [Compound A], in experiment [1], the “effect on PPIX accumulation by flow cytometry” value is “dose-dependent inhibition of PPIX accumulation”. Further, the IC50 in experiment [1] was found to be 43.5 nM; in experiment [2] it was 97.1 nM. Also, the PPIX pmol/million cells in experiment [2] (0.46 nM, sample 1) was 19.2 pmol/million cells; in experiment [2] (0.46 nM, sample 2), 18.2 pmol/million cells; in experiment [2] (1.37 nM, sample 1), 11.8 pmol/million cells; in experiment [2] (1.37 nM, sample 2), 16.7 pmol/million cells; in experiment [2] (4.12 nM, sample 1), 18.5 pmol/million cells; in experiment [2] (4.12 nM, sample 2) it was 13.3 pmol/million cells. Further, the PPIX pmol/million cells in experiment [2] (12.35 nM, sample 1) was 30.1 pmol/million cells; in experiment [2] (12.35 nM, sample 2), 20.3 pmol/million cells; in experiment [2] (37.04 nM, sample 1), 18.5 pmol/million cells; in experiment [2] (37.04 nM, sample 2) it was 19.4 pmol/million cells; in experiment [2] (111.11 nM, sample 1), 7 pmol/million cells; in experiment [2] (111.11 nM, sample 2), 7.25 pmol/million cells. For the same molecule, the PPIX pmol/million cells is given as 5.97 pmol/million cells in experiment [2] (333.33 nM, sample 1); 4.69 pmol/million cells in experiment [2] (333.33 nM, sample 2); 3.94 pmol/million cells in experiment [2] (1000.00 nM, sample 1); 6.95 pmol/million cells in experiment [2] (1000.00 nM, sample 2). For the same molecule, in experiment [2], the “effect on PPIX accumulation” value is listed as “decreased”.
`C[C@H](Oc1ccc(S(C)(=O)=O)cc1C(=O)N1Cc2cc(C(F)(F)F)cnc2C1)C(F)(F)F` [Compound X]: the “effect on PPIX accumulation by flow cytometry” value in experiment [1] is on record as “dose-dependent inhibition of PPIX accumulation”. Also, the IC50 stood at 76.8 nM in experiment [1] and 33.5 nM in experiment [2]. Moreover, the PPIX pmol/million cells came out at 25 pmol/million cells in experiment [2] (0.46 nM, sample 1); 27.1 pmol/million cells in experiment [2] (0.46 nM, sample 2); 27.3 pmol/million cells in experiment [2] (1.37 nM, sample 1); 46.5 pmol/million cells in experiment [2] (1.37 nM, sample 2); 34.4 pmol/million cells in experiment [2] (4.12 nM, sample 1); 24.7 pmol/million cells in experiment [2] (4.12 nM, sample 2). Also, the PPIX pmol/million cells in experiment [2] (12.35 nM, sample 1) stood at 34.6 pmol/million cells; in experiment [2] (12.35 nM, sample 2), 34.6 pmol/million cells; in experiment [2] (37.04 nM, sample 1), 14.7 pmol/million cells; in experiment [2] (37.04 nM, sample 2), 17.5 pmol/million cells; in experiment [2] (111.11 nM, sample 1), 13.6 pmol/million cells; in experiment [2] (111.11 nM, sample 2), 13.5 pmol/million cells. The PPIX pmol/million cells in experiment [2] (333.33 nM, sample 1) is recorded as 14.1 pmol/million cells; in experiment [2] (333.33 nM, sample 2), 15.2 pmol/million cells; in experiment [2] (1000.00 nM, sample 1) it was 11 pmol/million cells; in experiment [2] (1000.00 nM, sample 2), 12.8 pmol/million cells. Also, in experiment [2], the “effect on PPIX accumulation” value was “decreased PPIX accumulation”.
